The experiment is filed under the species Rattus norvegicus. The experiment can be described thus: Gastric cytoprotective activity in male wistar rat. In kind it is functional.
In turn, `COc1cc2c(c3oc(=O)ccc13)OCO2` came in with a Cytoprotective effect of 4.2. Under `CC1=CC(=O)CC1` stands 4.3; under `C#CC(=O)OCC` [PROPYNOIC ACID ETHYL ESTER], 0.43.

On to `CCOC(=O)CC(=O)c1ccoc1`, for which the Cytoprotective effect turned out to be 4.75.

Turning to `O=C/C=C/c1ccccc1` [CINNAMALDEHYDE], the Cytoprotective effect came to 4.5. With `C/C=C(\C)C=O` [2-methyl-(E)-2-butenal], the Cytoprotective effect was determined as 4.6. In turn, `C=CC#N` [ACRYLONITRILE] returned a Cytoprotective effect of 3.5. `C=C1CCOC1=O` [TULIPALINE A]: the Cytoprotective effect stood at 0.25. Under `C=C(C=O)C1CC=C(C)CC1` (centres undefined) stands 0.9.

As for `C=C(C)C(=O)OC`, the Cytoprotective effect worked out at 4.8. To `C/C=C(\C)C(=O)O` belongs 5; to `O=c1ccc2ccccc2o1` [COUMARIN], 4.7; to `C=CC(=O)OCC` [ACRYLIC ACID ETHYL ESTER], 4.3.

Compound `O=c1ccc2ccc(O)cc2o1` [UMBELLIFERONE] returned a Cytoprotective effect of 3.8.

Compound `O=C1C=CCC1` registered a Cytoprotective effect of 1.3.

`C/C=C(\C)C(=O)OCC` registered a Cytoprotective effect of 4.8.

With `CC1CC(O)=CC(=O)O1` (centres undefined), the Cytoprotective effect is given as 4.66. To `COc1cc2ccc(=O)oc2c(O)c1O` [FRAXETIN] belongs 4.75; to `O=C(O)/C=C/c1ccccc1` [CINNAMIC ACID], 5; to `O=c1cc(O)c2ccccc2o1` [4-HYDROXYCOUMARINS], 4.62.

Take `COC(=O)/C=C/c1ccccc1` [E-METHYL CINNAMATE]: the Cytoprotective effect is given as 2.9. In turn, `O=C1C=CCCO1` gave a Cytoprotective effect of 0.55.

Consider `C/C=C(/C)C(=O)OC`, for which the Cytoprotective effect was 5. `C=C(C=O)C1CCC(C)(O)CC1` (centres undefined) had a Cytoprotective effect of 0.7.

`CC1=CC(=O)C(=C(C)C)CC1`: the Cytoprotective effect was determined as 4.3. Take `C/C=C(\C)C(=O)OC`: the Cytoprotective effect worked out at 5. To `COC(=O)C=C(C)C` belongs 4.5; to `C/C=C(/C)C(=O)O`, 3.5; to `O=C(O)/C=C/c1ccoc1`, 4.6.

Values taken from ChEMBL document CHEMBL1130058, “Structure-cytoprotective activity relationship of simple molecules containing an alpha,beta-unsaturated carbonyl system” (1997).
